Assay results reported in US20150018546A1, “HETEROCYCLIC COMPOUND HAVING ANTI-HIV ACTIVITY” (TOYAMA CHEMICAL CO., LTD., priority 2012, published 2015).
Counter-ions that a name gives are not always drawn. Like-named read-outs stand apart in the source and are kept apart here.

Test system: HIV-1 (JRCSF)
Experiment: Anti-HIV activity in MaRBLE cells infected with HIV-1 (JRCSF), luciferase readout
Assay type: cell-based
Details: Human immunodeficiency virus 1, 168 h, read-out: Anti-HIV activity IC50
Summary of the method: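 HPB-M(a)-derived MaRBLE cells carrying HIV-1 LTR-luciferase and CCR5, infected with HIV-1 JRCSF, 1×10^5 cells/well in RPMI1640/10% FCS, cultured 7 days at 37 °C. Luciferase read; proliferation % relative to compound-free wells minus uninfected background; IC50 by linear regression on log concentration.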

[1] = MaRBLE cells (human T lymphocyte-derived HPB-M(a)) infected with HIV-1 (JRCSF), 7 days culture, rate of viral proliferation by luciferase activity

| SMILES | IC50 [1] | IC50 |
| --- | --- | --- |
| Cc1ncnc2c1c(NCc1cnc3ccccc3c1)cc(=O)n2O [Example 124, 8-hydroxy-4-methyl-5-(((quinolin-3-yl)methyl)amino)pyrido[2,3-d]pyrimidin-7(8H)-one] | 58 nM |  |
| Cc1ncnc2c1c(NCc1cccc(N)c1)cc(=O)n2O [Example 129, 5-((3-aminobenzyl)amino)-8-hydroxy-4-methylpyrido[2,3-d]pyrimidin-7(8H)-one] | 91 nM |  |
| Cc1ccc(CNc2cc(=O)n(O)c3ncnc(C)c23)cn1 [Example 50, 8-hydroxy-4-methyl-5-(((6-methylpyridin-3-yl)methyl)amino)pyrido[2,3-d]pyrimidin-7(8H)-one] | 110 nM |  |
| O=C(NCc1ccccc1)c1ncnc2c1c(O)cc(=O)n2O [Example 63, N-benzyl-5,8-dihydroxy-7-oxo-7,8-dihydropyrido[2,3-d]pyrimidine-4-carboxamide] | 870 nM |  |
| Cc1ncnc2c1c(NCCCN(C)C)cc(=O)n2O [Example 155, 5-((3-(dimethylamino)propyl)amino)-8-hydroxy-4-methylpyrido[2,3-d]pyrimidin-7(8H)-one hydrochloride] |  | 230 nM |
| Cc1ncnc2c1c(NCc1cccc(NS(C)(=O)=O)c1)cc(=O)n2O [Example 126, N-(3-(((8-hydroxy-4-methyl-7-oxo-7,8-dihydropyrido[2,3-d]pyrimidin-5-yl)amino)methyl)phenyl)methanesulfonamide] | 140 nM |  |
| Cc1ncnc2c1c(NCc1ccc(OCCO)cc1)cc(=O)n2O [Example 144, 8-hydroxy-5-((4-(2-hydroxyethoxy)benzyl)amino)-4-methylpyrido[2,3-d]pyrimidin-7(8H)-one] | 90 nM |  |
